Assay results reported in patent US5395842A, “Anti-estrogenic compounds and compositions” (Endorecherche Inc., priority 1991, dated 1995).
Each block holds one compound with its values, some of them ahead of it.

Legend:
[1] = test system: 17β-hydroxysteroid dehydrogenase; conditions: Thomas et al., 1983; cited from earlier work
[2] = test system: uterine weight in adult female ovariectomized Balb/c mice; assay: inhibition of the estradiol-induced stimulation of uterine weight in adult female ovariectomized Balb/c mice; format: in vivo
Experimental: (§1) EM-142, and/or estradiol contained in ethanol were injected subcutaneously in the appropriate groups in a solution of 0.9% (w/v) sodium chloride and 1% (w/v) gelatin at different concentrations in 0.2 ml for EM-142, twice daily, starting on the day of ovariectomy for a total of 9 injections. Estradiol was injected at the dose of 0.01 μg in 0.2 ml, twice daily, starting on the morning after ovariectomy for a total of 8 injections.
After sacrifice, the uteri were rapidly removed, freed from fat and connective tissue and weighted. Results shown in FIG. 2 are the means±SEM of groups of 9-10 mice.
as §1, with “"EM 139", and/or” for “EM-142, and/or”, “estradiol dissolved” for “estradiol contained”, “concentrations of "EM 139" (as noted along the X axis of FIG. 3). A dosage of” for “concentrations in”, “ml of the foregoing preparation, was administered” for “ml for EM-142,”
After sacrifice, the uteri were rapidly removed, freed from fat and connective tissue and weighed. Results shown in FIG. 3 are the means±SEM of groups of 9-10 mice.

[3] = test system: 17β-hydroxysteroid dehydrogenase (17β-HSD); assay: inhibition of 17β-HSD catalyzed conversion of estradiol to estrone (NADH formation at 340 nm); format: biochemical, human; conditions: increasing concentrations; 1 μg 17β-HSD, 5 mM NAD, 20 μM 17β-estradiol, pH 7.5, 25° C., 15 min; FIG. 4
Source text: To test the effect of "EM 139" on the inhibition of sex steroid formation, its effect on the 17β-hydroxysteroid dehydrogenase catalyzed conversion of estradiol to estrone was observed. The reaction was followed by monitoring formation of NADH (at 340 nm). The rate of conversion of cofactor NAD to NADH varies directly with the rate of estradiol conversion to estrone. The ability of "EM 139" to inhibit estrone production is indicative of its ability to inhibit the estrogen-forming reverse reaction because both reactions are catalyzed by 17β-hydroxysteroid dehydrogenase (Thomas et al., J. Biol. Chem. 258: 11500-11504, 1983). 17β-hydroxysteroid dehydrogenase (17β-HSD) was purified to homogeneity from human placenta. A reaction vessel was prepared containing 1 μg 17β-HSD, 5 mM NAD, 20 μM 17β-estradiol, and the concentrations of the test compound "EM 139" which are indicated along the X-axis of FIG. 4 in 1.0 ml of a mixture of Tris-HCl (50 mM), EDTA (2 mM), NaN3 (5 mM). The pH was 7.5. The reaction was allowed to proceed at 25° C. for 15 min. Formation of NADH was measured at 340 nm.

[4] = test system: rat uterine cytosol estrogen receptor; assay: competition binding on the rat uterine cytosol estrogen receptor with [3H] estradiol; conditions: 25° C., FIG. 1
Experimental: J. Endocrinol. 112: R7-R110) and EM-142 (an antiestrogen having a nonsteroidal nucleus and synthesized in example 1, herein) for the rat uterine cytosol receptor ([…] et al., 1978; J. Steroid Biochem. 9: 1079-1082). EM-142 from example 1 was tested by competition binding on the rat uterine cytosol estrogen receptor with [^3 H] estradiol according to […] et al. (1976) prodecure. […] (incubation was performed at 25° C. for 3 hours).

[5] = test system: ZR-75-1 human breast cancer cell line; assay: growth of ZR-75-1 human breast cancer cells; format: cell-based; conditions: for IC50: Homo sapiens, 240 h, 10 days, read-out: half-maximal effectiveness / IC50 on growth of ZR-75-1 cells
Experimental: ZR-75-1 cells (83rd passage) were obtained from the American Type Culture Collection (Rockville, Md.) and routinely cultured in phenol-red free RPMI 1640 supplemented with 1 nM E2, 2 mM L-glutamine, 1 mM sodium pyruvate, 15 mM N-2-hydroxyethyl-piperazine-N'-2-ethanesulfonic acid, 100 IU penicillin/ml, 100 μg streptomycin/ml, and 10% (v/v) fetal bovine serum (Hyclone, Logan, UT) under a humidified atmosphere of 95% air, 5% CO2, at 37° C. All media and medium supplements were purchased from Sigma. Cells were subcultured weekly by treatment with a pancreatic solution containing 0.02% EDTA (w/v). The cell cultures used for the experiments herein described were between passages 89 and 94.
Cells in their logarithmic growth phase were harvested, briefly centrifuged, and resuspended in RPMI 1640. Cells were then plated in triplicate in LIMBRO 24-well plastic culture plates (2 cm^2 /well). Since plating density influences the effect of hormones on ZR-75-1 cell growth, cells were plated at a density of 1×10^4 cells/well. After 72 h, medium was replaced with fresh medium of identical composition containing, in addition, the concentrations of steroids and/or inhibitors (e.g. EM 312 or EM 343) indicated along the X-axis of FIG. 5. Control cultures received the ethanol vehicle only. Cells were then allowed to grow at 37° C. for 10 days with medium changes (of identical composition) every 2 days. In absence of inhibitors, in 0.1 nM estradiol (E2)-containing medium, ZR-75-1 cells have doubling time of about 48 h.
After E2 and/or antiestrogen treatment, cells were harvested by addition of 0.5 ml of a pancreatin solution (Sigma) for 5-10 min at 37° C. before addition of 0.5 ml of RPMI 1640 containing 5% dextran-coated charcoal-fetal bovine serum in order to block enzymatic action. Cell number (0.10-ml aliquot) was determined by measurement of DNA content as previously described (Simard et al., Endocrinology 126: 3223-3231, 1990).

[6] = reported by Saeed et al. and Sharma et al., 1990; cited from earlier work
advanced breast cancer = conditions: H. Mouridsen et al., 1978; cited from earlier work

SMILES: C=C1C[C@H]2[C@@H]3CCc4cc(O)ccc4[C@H]3CC[C@]2(C)[C@H]1O [16-methylene estradiol]
- inhibition of 17β-hydroxysteroid dehydrogenase activity (in words) [1]: inhibitors of 17β-hydroxysteroid dehydrogenase activity

SMILES: C=C1C[C@H]2[C@@H]3CCc4cc(O)ccc4[C@H]3CC[C@]2(C)C1=O [16-methylene estrone]
- inhibition of 17β-hydroxysteroid dehydrogenase activity (in words) [1]: inhibitors of 17β-hydroxysteroid dehydrogenase activity

SMILES: CCCCN(C)C(=O)CCCCCCCCCC[C@@H]1Cc2cc(O)ccc2[C@H]2CC[C@]3(C)[C@@H](O)[C@H](Cl)C[C@H]3[C@H]12 [EM 139, N-n-butyl-N-methyl-11-(16'α-chloro-3',17'β-dihydroxy-estra-1',3',5'(10') -trien-7' α-yl) undecanamide]
- reduction of estradiol-induced uterine weight gain (in words) ([2]; s.c., twice daily, 9 injections, FIG. 3): highly effective in reducing estradiol-induced uterine weight gain
- inhibition of 17β-HSD reaction (in words) [3]: significantly inhibited the reaction

- binding potency compared with the antiestrogen ICI 164384 (in words) [4]: more potent
- times less potent than 17β-estradiol [4]: 3 times
SMILES: CCCCN(C)C(=O)CCCCCCCCCCC(=C(CC)c1ccc(O)cc1)c1ccc(O)cc1 [EM 142, N-butyl, N-methyl-12,13-Bis(4-hydroxyphenyl)-12-pentadecenoic amide]
- inhibitory effect on E2-induced uterine growth (in words) ([2]; 0.3 μg, s.c., twice daily, estradiol 0.01 μg, FIG. 2): significant inhibitory effect
- reversal of estrogenic action on uterine weight (in words) ([2]; 20 μg, s.c., twice daily, estradiol 0.01 μg, FIG. 2): complete reversal of estrogenic action
- estrogenic effect on uterine weight (in words) ([2]; EM-142, agonism on uterine weight): no estrogenic effect on uterine weight

- IC50 ([5]; ZR-75-1 cells, FIG. 5): 843 pM
- fold by which IC50 is higher than that of EM 343 ([5]; ZR-75-1 cells, relative to EM 343, FIG. 5): 3 -fold
SMILES: Oc1ccc(C2=Cc3ccc(O)cc3OC2c2ccc(OCCN3CCCCC3)cc2)cc1 (stereo not shown) [EM 312]
- comparative effect on growth of ZR-75-1 cells vs EM 343 (in words) ([5]; comparative testing in the applicant's laboratory): underperformed EM 343
- antiestrogenic activity (in words) [6]: antiestrogenic activity

- IC50 ([5]; ZR-75-1 cells, FIG. 5): 255 pM
SMILES: CC1=C(c2ccc(O)cc2)C(c2ccc(OCCN3CCCCC3)cc2)Oc2cc(O)ccc21 (stereo not shown) [EM 343]
- cell growth inhibition (in words) ([5]; ZR-75-1 cells, low concentration, FIG. 5): extensive cell growth inhibition

SMILES: CC/C(=C(\c1ccccc1)c1ccc(OCCN(C)C)cc1)c1ccccc1 [Tamoxifen]
- women patients with remission of advanced breast cancer (advanced breast cancer): about 30%
